Literature values, collected in patent US20230000899A1, “ALGINATE, POLYLYSINE, AND SEED PRESERVATIVE NUTRITIONAL PRODUCT AND DIGESTIVE AID” (Reflux Gourmet LLC, priority 2021, published 2023).

Tested on: laboratory mice
Conditions: certain laboratory mice; administered in high concentrations

SMILES: Oc1ccc(C=Cc2cc(O)cc(O)c2)cc1 [resveratrol]
- extension of life span: up to 50%
